Reference: ChEMBL document CHEMBL2440112, “Structure-activity relationships of the aromatic site in novel anticonvulsant pyrrolo[1,2-a]pyrazine derivatives” (Bioorg Med Chem Lett, 2013)
The source made the active and inactive calls. No cut-off for these calls is given here.

Key:
Mus musculus [1] = assay: Neurotoxicity in albino mouse minimal clonic seizure model assessed as minimal motor impairment at 100 mg/kg, ip after 4 hrs by rotorod test; assay type: toxicity, organism-based; parameters: dose 100 mg/kg, route intraperitoneal; conditions: in vivo
Mus musculus [2] = assay: Neurotoxicity in albino mouse minimal clonic seizure model assessed as minimal motor impairment at 100 mg/kg, ip after 2 hrs by rotorod test; assay type: toxicity, organism-based; parameters: dose 100 mg/kg, route intraperitoneal; conditions: in vivo
Mus musculus [3] = assay: Neurotoxicity in albino mouse minimal clonic seizure model assessed as minimal motor impairment at 100 mg/kg, ip after 1 hr by rotorod test; assay type: toxicity, organism-based; parameters: dose 100 mg/kg, route intraperitoneal; conditions: in vivo
Mus musculus [4] = assay: Neurotoxicity in albino mouse minimal clonic seizure model assessed as minimal motor impairment at 100 mg/kg, ip after 0.5 hrs by rotorod test; assay type: toxicity, organism-based; parameters: dose 100 mg/kg, route intraperitoneal; conditions: in vivo
Mus musculus [5] = assay: Neurotoxicity in albino mouse minimal clonic seizure model assessed as minimal motor impairment at 100 mg/kg, ip after 0.25 hrs by rotorod test; assay type: toxicity, organism-based; parameters: dose 100 mg/kg, route intraperitoneal; conditions: in vivo
Mus musculus [6] = assay: Neurotoxicity in albino mouse minimal clonic seizure model assessed as loss of righting reflex at 100 mg/kg, ip after 0.25 hrs by rotorod test; assay type: toxicity, organism-based; parameters: dose 100 mg/kg, route intraperitoneal; conditions: in vivo
Mus musculus [7] = assay: Anticonvulsant activity in albino mouse assessed as protection against 6 Hz psychomotor seizure at 100 mg/kg, ip after 4 hrs by minimal clonic seizure test; assay type: functional, organism-based; parameters: dose 100 mg/kg
Mus musculus [8] = assay: Anticonvulsant activity in albino mouse assessed as protection against 6 Hz psychomotor seizure at 100 mg/kg, ip after 2 hrs by minimal clonic seizure test; assay type: functional, organism-based; parameters: dose 100 mg/kg
Mus musculus [9] = assay: Anticonvulsant activity in albino mouse assessed as protection against 6 Hz psychomotor seizure at 100 mg/kg, ip after 1 hr by minimal clonic seizure test; assay type: functional, organism-based; parameters: dose 100 mg/kg
Mus musculus [10] = assay: Anticonvulsant activity in albino mouse assessed as protection against 6 Hz psychomotor seizure at 100 mg/kg, ip after 0.5 hrs by minimal clonic seizure test; assay type: functional, organism-based; parameters: dose 100 mg/kg
Mus musculus [11] = assay: Anticonvulsant activity in albino mouse assessed as protection against 6 Hz psychomotor seizure at 100 mg/kg, ip after 0.25 hrs by minimal clonic seizure test; assay type: functional, organism-based; parameters: dose 100 mg/kg
Rattus norvegicus [12] = assay: Anticonvulsant activity in po dosed albino Sprague-Dawley rat assessed as protection against maximal electroshock-induced seizures after […] to 4 hrs; assay type: functional, organism-based
Mus musculus [13] = assay: Neurotoxicity in albino mouse assessed as minimal motor impairment at 100 mg/kg, ip after 4 hrs by rotorod test; assay type: toxicity, organism-based; parameters: dose 100 mg/kg, route intraperitoneal; conditions: in vivo
Mus musculus [14] = assay: Neurotoxicity in albino mouse assessed as minimal motor impairment at 100 mg/kg, ip after 1 hr by rotorod test; assay type: toxicity, organism-based; parameters: dose 100 mg/kg, route intraperitoneal; conditions: in vivo
Mus musculus [15] = assay: Neurotoxicity in albino mouse assessed as minimal motor impairment at 100 mg/kg, ip after 0.5 hrs by rotorod test; assay type: toxicity, organism-based; parameters: dose 100 mg/kg, route intraperitoneal; conditions: in vivo
Mus musculus [16] = assay: Neurotoxicity in albino mouse assessed as minimal motor impairment at 100 mg/kg, ip after 0.25 hrs by rotorod test; assay type: toxicity, organism-based; parameters: dose 100 mg/kg, route intraperitoneal; conditions: in vivo
Mus musculus [17] = assay: Anticonvulsant activity in albino mouse assessed as protection against subcutaneous metrazole-induced seizures at 100 mg/kg, ip after 4 hrs; assay type: functional, organism-based; parameters: dose 100 mg/kg
Mus musculus [18] = assay: Anticonvulsant activity in albino mouse assessed as protection against subcutaneous metrazole-induced seizures at 100 mg/kg, ip after 1 hr; assay type: functional, organism-based; parameters: dose 100 mg/kg
Mus musculus [19] = assay: Anticonvulsant activity in albino mouse assessed as protection against subcutaneous metrazole-induced seizures at 100 mg/kg, ip after 0.5 hrs; assay type: functional, organism-based; parameters: dose 100 mg/kg
Mus musculus [20] = assay: Anticonvulsant activity in albino mouse assessed as protection against maximal electroshock-induced seizures at 100 mg/kg, ip after 4 hrs; assay type: functional, organism-based; parameters: dose 100 mg/kg
Mus musculus [21] = assay: Anticonvulsant activity in albino mouse assessed as protection against subcutaneous metrazole-induced seizures at 100 mg/kg, ip after 0.25 hrs; assay type: functional, organism-based; parameters: dose 100 mg/kg
Mus musculus [22] = assay: Anticonvulsant activity in albino mouse assessed as protection against maximal electroshock-induced seizures at 100 mg/kg, ip after 1 hr; assay type: functional, organism-based; parameters: dose 100 mg/kg
Mus musculus [23] = assay: Anticonvulsant activity in albino mouse assessed as protection against maximal electroshock-induced seizures at 100 mg/kg, ip after 0.5 hrs; assay type: functional, organism-based; parameters: dose 100 mg/kg
Mus musculus [24] = assay: Anticonvulsant activity in albino mouse assessed as protection against maximal electroshock-induced seizures at 100 mg/kg, ip after 0.25 hrs; assay type: functional, organism-based; parameters: dose 100 mg/kg
Mus musculus [25] = assay: Neurotoxicity in albino mouse assessed as loss of righting reflex at 100 mg/kg, ip after 0.25 hrs by rotorod test; assay type: toxicity, organism-based; parameters: dose 100 mg/kg, route intraperitoneal; conditions: in vivo
Mus musculus [26] = assay: Toxicity in subcutaneous metrazole treated albino mouse assessed as myoclonic jerks at 100 mg/kg, ip after 0.25 hrs; assay type: organism-based; parameters: dose 100 mg/kg; conditions: in vivo, sc
Mus musculus [27] = assay: Toxicity in subcutaneous metrazole treated albino mouse assessed as myoclonic jerks at 100 mg/kg, ip after 0.5 hrs; assay type: organism-based; parameters: dose 100 mg/kg; conditions: in vivo, sc
Rattus norvegicus [28] = assay: Toxicity in albino Sprague-Dawley rat pilocarpine-induced status prevention model assessed as weight change in non-protected animal at 200 mg/kg, ip administered 30 mins before pilocarpine challenge; assay type: organism-based; parameters: dose 200 mg/kg, route intraperitoneal; conditions: in vivo, 0.5 h
Rattus norvegicus [29] = assay: Toxicity in albino Sprague-Dawley rat pilocarpine-induced status prevention model assessed as weight change in non-protected animal at 200 mg/kg, ip followed by immediately administered pilocarpine; assay type: organism-based; parameters: dose 200 mg/kg, route intraperitoneal; conditions: in vivo
Rattus norvegicus [30] = assay: Toxicity in albino Sprague-Dawley rat pilocarpine-induced status prevention model assessed as weight change in protected animal at 200 mg/kg, ip administered 30 mins before pilocarpine challenge; assay type: organism-based; parameters: dose 200 mg/kg, route intraperitoneal; conditions: in vivo, 0.5 h
Rattus norvegicus [31] = assay: Toxicity in albino Sprague-Dawley rat pilocarpine-induced status prevention model assessed as weight change in protected animal at 200 mg/kg, ip followed by immediately administered pilocarpine; assay type: organism-based; parameters: dose 200 mg/kg, route intraperitoneal; conditions: in vivo
Mus musculus [32] = assay: Anticonvulsant activity in ip dosed albino mouse assessed as protection against 6 Hz psychomotor seizure by minimal clonic seizure test; assay type: functional
[33] = Neurotoxicity in ip dosed albino mouse minimal clonic seizure model assessed as minimal motor impairment by rotorod test; assay type: toxicity, organism-based; conditions: in vivo
Rattus norvegicus [34] = assay: Neurotoxicity in albino Sprague-Dawley rat assessed as minimal motor impairment at 30 mg/kg, ip after 4 hrs by rotorod test; assay type: toxicity, organism-based; parameters: dose 30 mg/kg, route intraperitoneal; conditions: in vivo
Rattus norvegicus [35] = assay: Neurotoxicity in albino Sprague-Dawley rat assessed as minimal motor impairment at 30 mg/kg, ip after 2 hrs by rotorod test; assay type: toxicity, organism-based; parameters: dose 30 mg/kg, route intraperitoneal; conditions: in vivo
Rattus norvegicus [36] = assay: Neurotoxicity in albino Sprague-Dawley rat assessed as minimal motor impairment at 30 mg/kg, ip after 1 hr by rotorod test; assay type: toxicity, organism-based; parameters: dose 30 mg/kg, route intraperitoneal; conditions: in vivo
Rattus norvegicus [37] = assay: Neurotoxicity in albino Sprague-Dawley rat assessed as minimal motor impairment at 30 mg/kg, ip after 0.5 hrs by rotorod test; assay type: toxicity, organism-based; parameters: dose 30 mg/kg, route intraperitoneal; conditions: in vivo
Rattus norvegicus [38] = assay: Neurotoxicity in albino Sprague-Dawley rat assessed as minimal motor impairment at 30 mg/kg, ip after 0.25 hrs by rotorod test; assay type: toxicity, organism-based; parameters: dose 30 mg/kg, route intraperitoneal; conditions: in vivo
Mus musculus [39] = organism: Mus musculus; assay: Protective index, ratio of TD50 for albino mouse minimal clonic seizure model to ED50 for albino mouse assessed as protection against 6 Hz psychomotor seizure; assay type: functional
Mus musculus [40] = assay: Anticonvulsant activity in ip dosed albino mouse assessed as time of peak effect for protection against 6 Hz psychomotor seizure by minimal clonic seizure test; assay type: functional
Rattus norvegicus [41] = assay: Anticonvulsant activity in albino Sprague-Dawley rat pilocarpine-induced status prevention model by measuring post-first stage 3 seizure at 200 mg/kg, ip followed by immediately administered pilocarpine; assay type: functional, organism-based; parameters: dose 200 mg/kg
Rattus norvegicus [42] = assay: Anticonvulsant activity in albino Sprague-Dawley rat pilocarpine-induced status prevention model by measuring post-first stage 3 seizure at 200 mg/kg, ip administered 30 mins before pilocarpine challenge; assay type: functional, organism-based; parameters: dose 200 mg/kg
Rattus norvegicus [43] = assay: Anticonvulsant activity in albino Sprague-Dawley rat assessed as protection against maximal electroshock-induced seizures at 30 mg/kg, ip after 4 hrs; assay type: functional, organism-based; parameters: dose 30 mg/kg
Rattus norvegicus [44] = assay: Anticonvulsant activity in albino Sprague-Dawley rat assessed as protection against maximal electroshock-induced seizures at 30 mg/kg, ip after 2 hrs; assay type: functional, organism-based; parameters: dose 30 mg/kg
Rattus norvegicus [45] = assay: Anticonvulsant activity in albino Sprague-Dawley rat assessed as protection against maximal electroshock-induced seizures at 30 mg/kg, ip after 1 hr; assay type: functional, organism-based; parameters: dose 30 mg/kg
Rattus norvegicus [46] = assay: Anticonvulsant activity in albino Sprague-Dawley rat assessed as protection against maximal electroshock-induced seizures at 30 mg/kg, ip after 0.5 hrs; assay type: functional, organism-based; parameters: dose 30 mg/kg
Rattus norvegicus [47] = assay: Anticonvulsant activity in albino Sprague-Dawley rat assessed as protection against maximal electroshock-induced seizures at 30 mg/kg, ip after 0.25 hrs; assay type: functional, organism-based; parameters: dose 30 mg/kg

| SMILES | Activity (Mus musculus [1]) | Activity (Mus musculus [2]) | Activity (Mus musculus [3]) | Activity (Mus musculus [4]) | Activity (Mus musculus [7]) | Activity (Mus musculus [8]) | Activity (Mus musculus [9]) | Activity (Mus musculus [10]) | Activity (Mus musculus [11]) | Activity (Rattus norvegicus [12]) | Activity (Mus musculus [13]) | Activity (Mus musculus [14]) | Activity (Mus musculus [15]) | Activity (Mus musculus [16]) | Activity (Mus musculus [17]) | Activity (Mus musculus [19]) | Activity (Mus musculus [20]) | Activity (Mus musculus [22]) | Activity (Mus musculus [23]) | Activity (Mus musculus [24]) | other results |
| --- | --- | --- | --- | --- | --- | --- | --- | --- | --- | --- | --- | --- | --- | --- | --- | --- | --- | --- | --- | --- | --- |
| O=C1NC(=O)[C@@H]2CCCN2[C@H]1c1cccc(Cl)c1 | Non-toxic | Non-toxic | Non-toxic | Toxic | inactive | inactive | Active | Active | Active | inactive | Non-toxic | Non-toxic | Non-toxic | Toxic | inactive | inactive | inactive | Active | Active | Active | Activity (Mus musculus [5]): Toxic; Activity (Mus musculus [6]): Toxic; Activity (Mus musculus [18]): inactive; Activity (Mus musculus [21]): Active |
| Cc1ccccc1[C@H]1C(=O)NC(=O)[C@@H]2CCCN12 | Non-toxic | Non-toxic | Non-toxic | Non-toxic | inactive | inactive | Active | Active | Active | inactive | Non-toxic | Non-toxic | Non-toxic |  | inactive | inactive | inactive | inactive | inactive | inactive | Activity (Mus musculus [5]): Non-toxic; Activity (Mus musculus [25]): Toxic; Activity (Mus musculus [18]): inactive; Activity (Mus musculus [26]): Toxic |
| O=C1NC(=O)[C@@H]2CCCN2[C@H]1c1ccc(Cl)c(Cl)c1 |  |  |  |  |  |  |  |  |  | inactive | Non-toxic | Non-toxic | Non-toxic | Non-toxic | inactive | Active | inactive | inactive | inactive | inactive | Activity (Mus musculus [27]): Toxic |
| O=C1NC(=O)[C@@H]2CCCN2[C@H]1c1ccc(Cl)cc1 |  |  |  |  | inactive | Active | Active | Active | Active | inactive | Non-toxic | Non-toxic | Non-toxic | Non-toxic | inactive | inactive | inactive | inactive | inactive | Active | Activity (Rattus norvegicus [28]): -31.4 g; Activity (Rattus norvegicus [29]): 15 g; Activity (Rattus norvegicus [30]): -30 g; Activity (Rattus norvegicus [31]): -3.6 g; ED50 (Mus musculus [32]): 32.2 mg/kg; TD50 [33]: 212 mg/kg; Activity (Rattus norvegicus [34]): Non-toxic; Activity (Rattus norvegicus [35]): Non-toxic; Activity (Rattus norvegicus [36]): Non-toxic; Activity (Rattus norvegicus [37]): Non-toxic; Activity (Rattus norvegicus [38]): Non-toxic; Ratio TD50/ED50 (Mus musculus [39]): 6.6; Time (Mus musculus [40]): 0.25 h; Activity (Rattus norvegicus [41]): Active; Activity (Rattus norvegicus [42]): inactive; Activity (Rattus norvegicus [43]): inactive; Activity (Rattus norvegicus [44]): inactive; Activity (Rattus norvegicus [45]): inactive; Activity (Rattus norvegicus [46]): Active; Activity (Rattus norvegicus [47]): Active |
